From publication PMC9260081, “Design, Synthesis, and Evaluation of Anticonvulsant Activities of New Triazolopyrimidine Derivatives” (Frontiers in Chemistry, 2022)
Read-outs that look alike come from different tables or passages of the source.

What was measured:
[1] = system: PTZ-induced seizures; experiment: Subcutaneous pentylenetetrazole (PTZ) test; format: in vivo, mice; conditions: Mus musculus, ip, mice, dosages 30, 100, 300 mg/kg, read-out: PTZ screening, minimum dose whereby bioactivity was demonstrated in half or more of the mice
Description: (§1) Male Kunming mice with weights from 18 to 22 g were used in all the pharmacological experiments. The mice were housed in the standard cages with 10 each, where a controlled temperature (25°C ± 2°C) with a 12 h light/dark cycle was maintained. All animals had free access to food and water. All experiments and procedures involving animals were carried out according to the Guide for the Care and Use of Laboratory Animals (National Academies Press, Washington, D.C., United States). Approval from the local medical ethical committee was obtained before the experiment.
In the PTZ test, mice were subcutaneously administered with PTZ at the dose of 85 mg/kg. At this dose, mice can be elicited a threshold seizure characterized by an episode of clonic spasms and tonic spasms. After being treated with test compounds at doses of 300, 100, and 30 mg/kg, the mice were considered protected if a single episode of clonic spasms of more than 5 s duration was not obtained. The quantitative anticonvulsant activity (ED50) in the PTZ model was determined and calculated with the same method described in the MES test.

[2] = system: MES-induced seizures; experiment: Maximal electroshock seizure (MES) test; format: in vivo, mice; conditions: Mus musculus, ip, mice, dosages 30, 100, 300 mg/kg, read-out: MES screening, minimum dose whereby bioactivity was demonstrated in half or more of the mice
Description: as §1
In the MES test, mice were subjected to ear stimulation using a 0.2 s 60-Hz 50-mA alternating current to elicit seizures. Tonic hind limb extension was considered as the seizure occurring, and the vanishing of tonic hind limb extension indicates the protection against the MES-induced seizures. Mice were injected intraperitoneally with test compounds at doses of 300, 100, and 30 mg/kg to evaluate their general anticonvulsant activity. Half and 4 h intervals were chosen to test the anti-MES activity. […] A series of doses of the tested compounds were injected into the mice with 10 in one group.

[3] = system: ability to maintain equilibrium on rotating rod; experiment: Neurotoxicity screening (rotarod test); format: in vivo; conditions: i.p., dosages 30, 100, 300 mg/kg
Description: as §1
The rotarod test was used to evaluate the neurotoxicity of the synthesized compounds. Before the formal experiments, mice were trained to climb on a rotating rod of diameter 3.2 cm with the rotation speed of 10 rpm. Test compounds in the three doses were intraperitoneally injected into the trained mice. […] The rough neurotoxic dose was obtained in which mice cannot maintain equilibrium on the rod for at least 1 min. The quantitative neurotoxic dose (TD50) of the test compounds was measured and calculated with the same method described in the MES test.

Row | Compound | minimal effective dose ([1]; 0.5 h after injection) [mg/kg] | minimal effective dose ([1]; 4 h after injection) [mg/kg] | minimal effective dose ([2]; 0.5 h after injection) [mg/kg] | minimal effective dose ([2]; 4 h after injection) [mg/kg] | NT screening (rotarod), minimum neurotoxic dose in half or more of the mice ([3]; 0.5 h after injection) | NT screening (rotarod), minimum neurotoxic dose in half or more of the mice ([3]; 4 h after injection)
1 | CCCOc1ccc(-c2ccnc3ncnn23)cc1 [Compound 6a, 7-(4-Propoxyphenyl)-[1,2,4]triazolo[1,5-a]pyrimidine] | 300 | > 300 | 300 | > 300 | — (A dash indicates the absence of anticonvulsant activity and neurotoxicity at the maximum dose administered (300 mg/kg)) | — (A dash indicates the absence of anticonvulsant activity and neurotoxicity at the maximum dose administered (300 mg/kg))
2 | Clc1ccc(-c2ccnc3ncnn23)cc1 [Compound 3d, 7-(4-Chlorophenyl)-[1,2,4]triazolo[1,5-a]pyrimidine] | > 300 | > 300 | > 300 | > 300 | — (A dash indicates the absence of anticonvulsant activity and neurotoxicity at the maximum dose administered (300 mg/kg)) | — (A dash indicates the absence of anticonvulsant activity and neurotoxicity at the maximum dose administered (300 mg/kg))
3 | Brc1ccc(-c2ccnc3ncnn23)cc1 [Compound 3f, 7-(4-Bromophenyl)-[1,2,4]triazolo[1,5-a]pyrimidine] | > 300 | > 300 | > 300 | > 300 | — (A dash indicates the absence of anticonvulsant activity and neurotoxicity at the maximum dose administered (300 mg/kg)) | — (A dash indicates the absence of anticonvulsant activity and neurotoxicity at the maximum dose administered (300 mg/kg))
4 | Clc1ccc(-c2ccnc3ccnn23)cc1 [Compound 4d, 7-(4-Chlorophenyl)pyrazolo[1,5-a]pyrimidine] | > 300 | > 300 | > 300 | > 300 | — (A dash indicates the absence of anticonvulsant activity and neurotoxicity at the maximum dose administered (300 mg/kg)) | — (A dash indicates the absence of anticonvulsant activity and neurotoxicity at the maximum dose administered (300 mg/kg))
5 | Cc1ccc(-c2ccnc3ncnn23)cc1 [Compound 3h, 7-(P-tolyl)-[1,2,4]triazolo[1,5-a]pyrimidine] | 100 | > 300 | 300 | > 300 | — (A dash indicates the absence of anticonvulsant activity and neurotoxicity at the maximum dose administered (300 mg/kg)) | — (A dash indicates the absence of anticonvulsant activity and neurotoxicity at the maximum dose administered (300 mg/kg))
6 | Brc1ccc(-c2ccnc3ccnn23)cc1 [Compound 4f, 7-(4-Bromophenyl)pyrazolo[1,5-a]pyrimidine] | > 300 | > 300 | > 300 | > 300 | — (A dash indicates the absence of anticonvulsant activity and neurotoxicity at the maximum dose administered (300 mg/kg)) | — (A dash indicates the absence of anticonvulsant activity and neurotoxicity at the maximum dose administered (300 mg/kg))
7 | Clc1ccccc1-c1ccnc2ccnn12 [Compound 4c, 7-(2-Chlorophenyl)pyrazolo[1,5-a]pyrimidine] | > 300 | > 300 | > 300 | > 300 | — (A dash indicates the absence of anticonvulsant activity and neurotoxicity at the maximum dose administered (300 mg/kg)) | — (A dash indicates the absence of anticonvulsant activity and neurotoxicity at the maximum dose administered (300 mg/kg))
8 | Fc1ccc(-c2ccnc3ncnn23)cc1 [Compound 3b, 7-(4-Fluorophenyl)-[1,2,4]triazolo[1,5-a]pyrimidine] | 300 | > 300 | 300 | > 300 | — (A dash indicates the absence of anticonvulsant activity and neurotoxicity at the maximum dose administered (300 mg/kg)) | — (A dash indicates the absence of anticonvulsant activity and neurotoxicity at the maximum dose administered (300 mg/kg))
9 | Fc1ccc(-c2ccnc3ccnn23)cc1 [Compound 4b, 7-(4-Fluorophenyl)pyrazolo[1,5-a]pyrimidine] | > 300 | > 300 | > 300 | > 300 | — (A dash indicates the absence of anticonvulsant activity and neurotoxicity at the maximum dose administered (300 mg/kg)) | — (A dash indicates the absence of anticonvulsant activity and neurotoxicity at the maximum dose administered (300 mg/kg))
10 | c1ccc(-c2ccnc3ccnn23)cc1 [Compound 4a, 7-Phenylpyrazolo[1,5-a]pyrimidine] | > 300 | > 300 | > 300 | > 300 | — (A dash indicates the absence of anticonvulsant activity and neurotoxicity at the maximum dose administered (300 mg/kg)) | — (A dash indicates the absence of anticonvulsant activity and neurotoxicity at the maximum dose administered (300 mg/kg))
11 | Clc1ccc(-c2ccnc3ccnn23)c(Cl)c1 [Compound 4e, 7-(2,4-Dichlorophenyl)pyrazolo[1,5-a]pyrimidine] | 300 | > 300 | > 300 | > 300 | — (A dash indicates the absence of anticonvulsant activity and neurotoxicity at the maximum dose administered (300 mg/kg)) | — (A dash indicates the absence of anticonvulsant activity and neurotoxicity at the maximum dose administered (300 mg/kg))
12 | CCCCOc1ccc(-c2ccnc3ncnn23)cc1 [Compound 6b, 7-(4-Butoxyphenyl)-[1,2,4]triazolo[1,5-a]pyrimidine] | 300 | > 300 | 100 | > 300 | — (A dash indicates the absence of anticonvulsant activity and neurotoxicity at the maximum dose administered (300 mg/kg)) | — (A dash indicates the absence of anticonvulsant activity and neurotoxicity at the maximum dose administered (300 mg/kg))
13 | COc1ccc(-c2ccnc3ncnn23)cc1 [Compound 3i, 7-(4-Methoxyphenyl)-[1,2,4]triazolo[1,5-a]pyrimidine] | 100 | > 300 | 300 | > 300 | — (A dash indicates the absence of anticonvulsant activity and neurotoxicity at the maximum dose administered (300 mg/kg)) | — (A dash indicates the absence of anticonvulsant activity and neurotoxicity at the maximum dose administered (300 mg/kg))
14 | O=[N+]([O-])c1ccc(-c2ccnc3ccnn23)cc1 [Compound 4g, 7-(4-Nitrophenyl)pyrazolo[1,5-a]pyrimidine] | > 300 | > 300 | > 300 | > 300 | — (A dash indicates the absence of anticonvulsant activity and neurotoxicity at the maximum dose administered (300 mg/kg)) | — (A dash indicates the absence of anticonvulsant activity and neurotoxicity at the maximum dose administered (300 mg/kg))
